What was measured:
[1] = test system: MMP-low and MMP-high HSCs; assay: Glucose uptake assay (2NBDG); format: cell-based, mouse; settings: STF-31 (10, 20 μM), 18 hours
Experimental: Glucose Uptake Assay: For measurement of glucose uptake, freshly FACS-purified MMP-low and MMP-high HSCs (at least 2,000 cells pooled in average from 8 mice) were cultured immediately in […] of glucose, glutamine, pyruvate free medium containing 100 or 200 μM 2-(n-(7-nitrobenz-2-oxa-1,3-diazol-4-yl amino)-2-deoxyglucose (2-NBD-Glucose, 2NBDG) for 2 hours. Cells were then washed multiple times in PBS, re-suspended in PBS containing 1 μg/ml DAPI, and analyzed by flow cytometry for 2-NBD glucose fluorescence in the FITC channel. In some experiments cells were cultured in StemSpan medium (StemCell Technology) supplemented with SCF (100 ng/ml) and TPO (20 ng/ml), treated with or without STF-31 ([…]), ConA (25, 50 nM), dimethyl alpha ketoglutarate (MOG, 1 mM), methyl pyruvate (MP, 1 mM) or DMSO, incubated at 37° C. in a humidified atmosphere with 5% CO2 for 6 or 18 hours before removing culture medium from each well, washing extensively and adding […] of glucose, glutamine, pyruvate free medium containing […] of 2 NBDG for 2 hours before washing cells multiple times in PBS and analyzing by flow cytometry. Quantification of 2NBDG uptake was measured by the geometric mean fluorescence intensity (“MFI”) as well as % of 2NBDG^+ cells.

[2] = test system: MMP-low and MMP-high LT-HSCs transplanted into lethally irradiated mice; format: in vivo
Experimental: Competitive In Vivo Long-Term Reconstitution Assay: MMP-low and MMP-high HSCs (LSKCD150^+CD48^−, LT-HSC; MMP^low/high) were FACS purified from CD45.1 mice and transplanted at the indicated dose of test cells with 2×10^5 CD45.2 bone marrow cells into lethally irradiated CD45.2 recipients (12 Gy as a split dose, 6.5 and 5.5 Gy, 4 hours apart). Donor (CD45.1) and recipient (CD45.2) mice were 8-12 weeks old. HSC frequency was determined by the limiting dilution assay (Hu & Smith, “ELDA: Extreme Limiting Dilution Analysis for Comparing Depleted and Enriched Populations in Stem Cell and Other Assays,” J. Immunol. Methods 347:7 0-78 (2009), which is hereby incorporated by reference in its entirety) based on the number of mice with […] reconstitution (CD45.1) at 16 weeks.
To assay the effect of glycolytic inhibition of HSCs in a competitive in vivo long-term reconstitution assay: FACS-sorted MMP-low and MMP-high LT-HSCs (CD45.1) were mixed with 2×10^5 CD45.2 total bone marrow cells and injected into lethally irradiated CD45.2 recipients. After 2 days mice were divided into four groups, MMP-low and MMP-high groups treated with PBS or 2-Deoxy-Glucose (2-DG, 1000 mg/kg) every other day for 30 days. Reconstitution of donor CD45.1 cells and lineage distribution were monitored monthly by staining blood cells with antibodies against CD45.1, CD4, CD8 (T), B220 (B), CD11b and Gr-1 (myeloid) cells. For secondary transplantations, 2×10^6 BM cells from primary recipients were transplanted into lethally irradiated secondary recipients. Donor CD45.1 cells contribution and lineage distribution were tracked from the peripheral blood by flow cytometry.

HSCs of treated mice = assay: In vivo glycolytic inhibition; design: species or system mouse
Experimental: In vivo Glycolytic Inhibition. To assess the effect of inhibition of glycolysis on MMP in HSCs, mice received intraperitoneal injections of either PBS or 2-DG 750 mg/kg every other day for 6 days after which total BM cells […] cells were isolated and MMP analyzed by flow cytometry in HSCs.

[3] = test system: MMP-low and MMP-high HSCs; assay: LT-HSCs maintenance assay (viability, DAPI exclusion); format: cell-based
Experimental: LT-HSCs Maintenance Assay: FACS-purified MMP-low and MMP-high HSCs cells were cultured in serum-free Stemspan medium supplemented with SCF (10 ng/mL) and TPO (20 ng/mL), cultured as single or 1,000 yells or 2,000 cells/well, and treated with ConA (10-100 nM), or 2-Deoxy-Glucose (2-DG; 5-60 mM), α-Cyano-4-hydroxycinnamic acid (CHC, 10 mM), or 0.5% DMSO, incubated at 37° C. for the indicated time. Cells were then washed twice in PBS, re-suspended in PBS containing 1 μg/ml DAPI, and analyzed by flow cytometry after DAPI exclusion.

HSCs (LSK CD150+CD48-) = assay: Mitochondrial membrane potential (TMRE) by flow cytometry; format: cell-based, mouse
Experimental: To measure mitochondrial membrane potential (“MMP”), Tetramethylrhodamine ethyl ester perchlorate (“TMRE”, 100 nM), which specifically accumulates within the mitochondrial matrix of live cells, was used in accordance with the manufacturer's instructions. In brief, cells were stained with the probe at 37° C. for 15 minutes post antibody staining, followed by washing and flow cytometry analysis or FACS purification. Probe responsiveness to MMP changes were tested using controls carbonyl cyanide 3-chlorophenylhydrazone (“CCCP”) and oligomycin, which decreased and increased fluorescence of TMRE respectively. MMP-low and MMP-high thresholds were determined as the lowest and highest 25% TMRE intensity HSCs. Reactive oxygen species (“ROS”) were measured using chloromethyl-dichlorodihydrofluorescein diacetate (“CM-H2DCFDA”) fluorescent probe as described in Rimmele et al., “Mitochondrial Metabolism in Hematopoietic Stem Cells Requires Functional FOXO3,”EMBO Rep. 16: 1164-1176 (2015); Yalcin et al., “ROS-Mediated Amplification of AKT/mTOR Signalling Pathway Leads to Myeloproliferative Syndrome in Foxo3(-/-) Mice,” EMBO J. 29: 4118-4131 (2010); and Yalcin et al., “Foxo3 Is Essential for the Regulation of Ataxia Telangiectasia Mutated and Oxidative Stress-mediated Homeostasis of Hematopoietic Stem Cells,” J. Biol. Chem. 283: 25692-25705 (2008), which are hereby incorporated by reference in their entirety. Flow cytometry acquisition was performed on the BD LSRII, while cell sorting was performed on the BD Influx. All flow cytometry analyses and quantification were done using FlowJo 10 (Treestar).

[4] = test system: MMP-low and MMP-high HSCs; assay: Autophagic vacuole formation / lysosomal localization of mitochondria (confocal immunofluorescence); format: cell-based, mouse; design: number of autolysosomes (LC3 co-localization with LAMP1) / co-localization of TOM20 with LAMP1 in MMP-low and MMP-high HSCs: dose or concentration left out as unconfirmed
Source text: Immunofluorescence Staining, Imaging, and Analysis—Super Resolution Confocal Microscopy: Images were acquired with a Zeiss LSM 880 confocal microscope equipped with Airyscan Super Resolution Imaging module, using a 100×/1.46 Alpha Plan Apochromat objective lens (Zeiss MicroImaging, Jena, Germany) with “optimal” (Nyquist) XY scaling. Z stacks through the entire cell were acquired at an […] (at least 20 optical sections) using a pixel dwell time of >50 microseconds and field dimensions of […] (20 MMP-low and 20 MMP-high HSCs analyzed). This was followed by Airyscan image processing (set at auto but rarely over 6.2) and analyses using ZEN image acquisition and processing software (ZEN blue/black). Maximum intensity projections shown in the figures were also obtained using ZEN Blue software.
Lysosomal Localization of Mitochondria. FACS-sorted MMP-low and MMP-high HSCs (LSKCD150^+CD48^-MMP-low/-high) were treated with DMSO control or leupeptin […] for 4 hours. HSCs were then fixed and imaged for TOM20 (mitochondria) and LAMP1 (lysosomes).
Autophagic Vacuole Formation. Accumulation of autophagy substrates, Translocase of outer membrane 20 (TOM20) or Map11c3a (LC3), was determined in the presence of amino acid-containing (DMSO) or -starved amino acid-depleted media, v-ATPase inhibitor concanamycin A (ConA 40nM), inhibitor of autophagosome-autolysosome fusion chloroquine (CQ, […]), or protease inhibitor, leupeptin […] following guidelines outlined for study of autophagy (Klionsky et al., “Guidelines for the Use and Interpretation of Assays for Monitoring Autophagy (3rd Edition),” Autophagy 12(1): 1-222 (2016) and Martinez-Lopez et al., “Autophagy Proteins Regulate ERK Phosphorylation,” Nat. Commun. 4: 2799 (2013), which are hereby incorporated by reference in their entirety). In brief, FACS-sorted
MMP-low and MMP- high HSCs were cultured in the presence or absence of indicated inhibitors for 4, 5, or 18 hours following which cells were subjected to immunofluorescence assays for TOM20, LC3 and/or LAMP1 or LAMP2 as described above. Analyses were performed to quantify the turnover of indicated protein in lysosomes by evaluating the accumulation of TOM20 or LC3 in the presence versus absence of an inhibitor. TOM20 and LC3 flux were determined by subtracting the colocalized value of inhibitor-untreated TOM20 or LC3 with LAMP1 from corresponding inhibitor-treated values. Images were captured using a Zeiss LSM880 Airyscan confocal microscope using 100 X objectives (Leica), and percentage colocalization was calculated using the JACoP plugin (NIH ImageJ).
Mitochondrial and Lysosome Morphology: Freshly isolated HSCs were analyzed for mitochondrial morphology. Each individual HSC (150 total) was analyzed by using Arivis Vision 4D software and classified as either fragmented or not fragmented in accordance with number of surfaces. Cells that fulfilled the definition of ‘fragmented’ contained 3 or more individual mitochondrial surfaces (Kask et al., “Fluorescence-intensity Distribution Analysis and Its Application in Biomolecular Detection Technology,” Proc. Natl. Acad. Sci. USA 96(24): 13756-13761 (1999), which is hereby incorporated by reference in its entirety). Lysosomes' fluorescence intensity or area profiling was calculated using ImageJ software enabling the detection of fluorescently labeled […] boundaries (lysosomal marker LAMP1), as reflected by sharp increases or decreases in fluorescence intensity. Channels displaying fluorescence for either mitochondria or lysosomes were thresholded with the IsoData option to delimit the boundaries of mitochondrial networks and lysosome morphology. The resulting outlines were measured using the analyzed particles option to determine the size of distinct particles representing mitochondrial networks or lysosomes. More than 50 cells/condition/experiment were analyzed for lysosomes. […]

[5] = recipients treated with 2-DG 1,000 mg/kg every other day for 30 days, after 4 months

CC(C)(C)c1ccc(S(=O)(=O)NCc2ccc(C(=O)Nc3cccnc3)cc2)cc1 [Glut1 inhibitor, STF-31]
glucose uptake in MMP-high HSCs [1]: decreased glucose uptake

O=CC[C@@H](O)[C@H](O)[C@H](O)CO [2-DG, 2-Deoxy D-Glucose]
lineage output in recipients of MMP-high HSCs ([2]; 2-DG-treated recipients): balanced production of blood
systemic effect in the blood of transplanted mice ([2]; long-term (up to 16 weeks), normal diet): no systemic effect was detected
enhancement of in vivo competitive repopulation ability of MMP-high HSCs [2, 5]: over 70 fold
in vivo competitive repopulation ability of MMP-low HSCs [2, 5]: only subtle effects
cellular viability after in vivo treatment (HSCs of treated mice; 2-DG 750 mg/kg every other day for 6 days): did not have much of an effect
overall MMP levels in long-term HSCs (HSCs of treated mice; 2-DG 750 mg/kg every other day for 6 days, intraperitoneal): slightly but significantly reduced
glucose uptake in HSCs with the highest MMP levels (HSCs of treated mice; in vivo 2-DG, 6 days): reduced glucose uptake
effect on MMP-low HSCs (viability) ([3]; 2-DG 50 mM, 12 hours): did not have much of an effect
death of MMP-high HSCs after 24 h ([3]; 2-DG 50 mM, 24 h, not in MMP-low): even more pronounced
MMP-high HSCs died ([3]; 2-DG 50 mM, within 12 hours): over 60%

N#CC(C#N)=NNc1cccc(Cl)c1 [CCCP, carbonyl cyanide 3-chlorophenylhydrazone]
fluorescence of TMRE (probe responsiveness control) (HSCs (LSK CD150+CD48-)): decreased

CC[C@H]1/C=C/C=C/C[C@@H](C)[C@H](O)[C@@](C)(O)C(=O)[C@@H](C)[C@H](O)[C@@H](C)C(=O)[C@@H](C)[C@H](O)[C@@H](C)/C=C/C(=O)O[C@@H]2[C@H](C)[C@H](CC1)O[C@]1(CC[C@H](C)[C@H](C[C@@H](C)O)O1)[C@H]2C [oligomycin]
fluorescence of TMRE (probe responsiveness control) (HSCs (LSK CD150+CD48-)): increased

COc1ccc(CCN(C)CCCC(C#N)(c2ccc(OC)c(OC)c2)C(C)C)cc1OC (stereo not shown) [Verapamil]
TMRE levels or proportion of MMP-low HSCs (HSCs (LSK CD150+CD48-); Verapamil 25 μM, 50 μM, MRP inhibition): did not modulate significantly

CC(=O)N[C@@H](CC(C)C)C(=O)N[C@@H](CC(C)C)C(=O)N[C@H](C=O)CCCNC(=N)N [leupeptin]
co-localization of TOM20 with LAMP1 in MMP-low and MMP-high HSCs ([4]; 4 h): enhanced similarly
increase in LC3-positive puncta, MMP-high HSCs ([4]; 4 h): 3.6 fold
increase in LC3-positive puncta, MMP-low HSCs ([4]; 4 h): 1.6 fold
number of autolysosomes (LC3 co-localization with LAMP1) ([4]; 4 h): greater number of autolysosomes
autolysosomal degradation (colocalization of LAMP1 with LC3) ([4]; ConA 40 nM, leupeptin 100 mM, chloroquine 40 mM, 18 hours, MMP-low and MMP-high HSCs): dramatically prevented autolysosomal degradation
size of lysosomes in HSCs ([4]; leupeptin, more evident in MMP-high HSCs): further increased the size of lysosomes

N#CC(=Cc1ccc(O)cc1)C(=O)O [CHC, a-cyano-4-hydroxycinnamate]
decrease of survival in MMP-high HSCs ([3]; 10 mM CHC, 6 hours): 80%
effect on survival of MMP-low HSCs ([3]; 10 mM CHC, 6 hours): negligible effect

From patent US20220243177A1, “METHODS OF CULTURING QUIESCENT HEMATOPOIETIC STEM CELLS AND TREATMENT METHODS” (priority 2019, published 2022)
